How the values were obtained:
tracheal rings = assay: Relaxation studies on pre-contracted tracheal rings; type: cell-based, guinea pigs; details: FIG. 1; tracheal rings contracted with methacholine, histamine or leukotriene D4; compared with salbutamol and compound 2a
Procedure: The assays as described here are also described in, for example, U.S. Pat. No. 4,992,474 and Jansen et al.(1992) J. Pharmacol. Exptl. TherapeuticsI 261(1):154-160.
(§1) Male Hartley guinea pigs (500-600 g) were anesthetized by intraperitoneal injection of ketamine and xylazine (50 and 10 mg/kg, respectively). The heart and lungs were excised en bloc and tracheas were removed and placed in Krebs-Henseleit buffer composed of (mM): NaCl 118, KCl 5.4, NaH2PO4 1.01, NaHCO3 25, MgSO4 0.69, […], glucose 11.1, pH 7.4. Tracheas were then dissected free from surrounding fat and connective tissue and cut into 1-2-mm thick rings. The tracheal rings were then placed in buffer and continuously gassed with 95% O2 and 5% CO2.
Tracheal rings were suspended on stainless steel hooks in 10 ml of oxygenated (95% O2, 5% CO2) Krebs-Henseleit buffer at 37° C. and connected to transducer (Experimetria Model) for recording changes in isometric force. The tracheal rings were equilibrated for 60 min under a load of 1 g and then primed twice by exposure to 100 μM methacholine. Tissues were contacted with methacholine, histamine, or leukotriene D4 at concentrations determined to approximately generate 50% of maximal tone, after which cumulative relaxation-response curves were constructed. […]

[1] = test system: NO-guanylyl cyclase pathway; assay: Cyclic nucleotide (cGMP) assay in tracheal rings; type: cell-based, guinea pigs; details: FIG. 2
Procedure: as §1
Tracheal rings in Krebs-Heneseleit solution were exposed to a 5-100 μM of the test compound for 30-90 seconds. Reaction was terminated by the addition of ice-cold 10% trichloroacetic acid and rapidly frozen in ethanol-saturated dry ice. In the methylene blue experiment, rings were pre-exposed methylene blue, a guanylyl cyclase inhibitor, for 30 min. Tissues were then individually pulverized with a glass homogenizer and centrifuged at 8000×g for 5 min. The clear supernatant was extracted with water-saturated ether and assayed for cGMP using commercially available radioimmunoassay kits as described by the manufacturer (Amersham Biosciences, Piscataway, N.J.).

Substance: 5-(2-tert-Butylamino-1-S-nitroso-ethyl)-1,1,3,3-tetramethyl-isoindolin-2-yloxyl [compound 2]
- relaxation response (relax. %) versus log of concentration (tracheal rings): more effective relaxant compound than either salbutamol or the non-nitrosolated precursor of compound 2, compound 2a
- cGMP response of tracheal rings ([1]; 5-100 μM test compound for 30-90 seconds, radioimmunoassay, compared with control and salbutamol): elevates the production of cGMP
- cGMP response of tracheal rings in the presence of methylene blue (MB) ([1]; rings pre-exposed to methylene blue, a guanylyl cyclase inhibitor, for 30 min): reduces the efficacy of compound 2
